From patent US20150297643A1, “INHIBITION OF RHO AND OR ROCK AND CELL TRANSPLANTATION” (priority 2012, published 2015) come the findings set out here.

This test deals with retinal ganglion cells (RGCs). It is filed as in vivo, rat.

As to `C[C@@H](N)C1CCN(S(=O)(=O)c2cccc3cnccc23)CC1` [BA-1049], the “neuroprotection of RGCs” value (highest dose tested (10 uM and 100 uM BA-1049 tested)) is reported as “modest neuroprotection”. Also, the “effect on RGC survival (FIG. 5)” value (very high concentration (1 mM)) is listed as “detectable effect”. As for `C[C@@H](N)[C@H]1CC[C@H](C(=O)Nc2ccncc2)CC1` [Y-27632], the “neuroprotective effect on RGCs” value (100 uM and 1 mM Y-27632, one week after optic nerve injury) is listed as “No neuroprotective effect”. Besides, for the setting “rat, in vivo”, the “rescue of neurons from trauma-induced cell death (Example 8, summary)” value is recorded as “not able to rescue neurons from trauma-induced cell death”. For C3-transferase, the “RGCs protected after axotomy” value (rat, in vivo) is 80%.
